According to patent US10508109B2 (priority 2015, dated 2019):
Where two headings read alike, the source gives them in different places.

Columns and labels:
SUV39H2 = SUV39H2 (Homo sapiens (Human), UniProt Q9H5I1); conditions: read-out: IC50 (μM) Suv 39H2 assay; enzyme assay
CCD-18Co = test: Cell-based assay, anti-proliferative activity (Cell Counting Kit-8, 72 hours); conditions: Homo sapiens, CCD-18Co cells, read-out: IC50 (μM) CCD-18Co
Procedure, shortened: (§1)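 CCK-8 viability read 72 h after compound exposure over an 8-point series from 1.5625 to 100 micro-M plus zero. Seeding density 2,000–3,000 cells/well; IC50 from the dilution series.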

HFL1 = test: as above; conditions: Homo sapiens, HFL1 cells, read-out: IC50 (μM) HFL1
Procedure, shortened: as §1

PC14 = test: as above; conditions: Homo sapiens, PC-14, PC14 cells, read-out: IC50 (μM) PC14
Procedure, shortened: as §1

HCT-116 = test: as above; conditions: Homo sapiens, HCT-116 cells, read-out: IC50 (μM) HCT-116
Procedure, shortened: as §1

A549 = test: as above; conditions: Homo sapiens, A549 cells, read-out: IC50 (μM) A549
Procedure, shortened: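 After compound exposure of cells in 96-well plates, growth was measured colorimetrically and converted into IC50 values.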

Sequence of SUV39H2 (Q9H5I1 whole entry): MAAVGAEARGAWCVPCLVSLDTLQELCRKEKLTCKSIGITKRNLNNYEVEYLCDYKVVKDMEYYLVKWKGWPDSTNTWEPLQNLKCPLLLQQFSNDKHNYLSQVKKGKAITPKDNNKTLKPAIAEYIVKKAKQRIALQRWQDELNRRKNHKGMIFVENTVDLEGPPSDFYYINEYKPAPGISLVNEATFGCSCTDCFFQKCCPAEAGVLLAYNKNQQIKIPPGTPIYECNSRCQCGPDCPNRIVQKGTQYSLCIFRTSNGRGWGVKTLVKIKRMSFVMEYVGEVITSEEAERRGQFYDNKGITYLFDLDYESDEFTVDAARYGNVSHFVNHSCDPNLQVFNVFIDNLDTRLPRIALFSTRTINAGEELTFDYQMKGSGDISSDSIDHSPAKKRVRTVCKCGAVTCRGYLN

Compound | IC50 (SUV39H2) | IC50 (CCD-18Co; 72 hours, Cell Counting Kit-8) | IC50 (HFL1; 72 hours, Cell Counting Kit-8) | IC50 (PC14; 72 hours, Cell Counting Kit-8) | IC50 (HCT-116; 72 hours, Cell Counting Kit-8) | IC50 (A549; 72 hours, Cell Counting Kit-8) | IC50 (CCD-18Co; Cell Counting Kit-8, 72 hours) | IC50 (HFL1; Cell Counting Kit-8, 72 hours) | IC50 (PC14; Cell Counting Kit-8, 72 hours) | IC50 (HCT-116; Cell Counting Kit-8, 72 hours) | IC50 (A549; Cell Counting Kit-8, 72 hours)
COc1cc(OC)c(-c2cn3ccc(NC(=O)[C@H](C)NC(=O)OC(C)(C)C)cc3n2)cc1Cl [Example 253, (S)-tert-butyl (1-((2-(5-chloro-2,4-dimethoxyphenyl)imidazo[1,2-a]-pyridin-7-yl)amino)-1-oxopropan-2-yl)carbamate] | 0.0582 µM | 6.7 µM | 6.5 µM | 6.9 µM | 10 µM | 10 µM | – | – | – | – | –
COc1cc(OC)c(-c2cn3ccc(OC4CCN(S(=O)(=O)c5nccn5C)CC4)cc3n2)cc1Cl [Example 288, 2-(5-chloro-2,4-dimethoxyphenyl)-7-((1-((1-methyl-1H-imidazol-2-yl)sulfonyl)piperidin-4-yl)oxy)imidazo[1,2-a]pyridine] | 0.0928 µM | 1.5 µM | 1.7 µM | 1.2 µM | 0.98 µM | 0.8 µM | – | – | – | – | –
COc1cc(OC)c(-c2cn3ccc(N4CCN(S(C)(=O)=O)CC4)nc3n2)cc1Cl [Example 177, 2-(5-chloro-2,4-dimethoxyphenyl)-7-(4-(methylsulfonyl)piperazin-1-yl)-imidazo[1,2-a]pyrimidine] | 0.0408 µM | – | – | – | – | – | 11 µM | 8 µM | 2.5 µM | 6 µM | 3.8 µM
COc1cc(OC)c(-c2cn3ccc(N4CCN(S(=O)(=O)C5CCCC5)CC4)nc3n2)cc1Cl [Example 204, 2-(5-chloro-2,4-dimethoxyphenyl)-7-[4-(cyclopentylsulfonyl)-piperazin-1-yl]imidazo[1,2-a]pyrimidine] | 0.0448 µM | – | – | – | – | – | 4.5 µM | 1.7 µM | 0.6 µM | 1 µM | 0.75 µM
COc1cc(OC)c(-c2cn3ccc(N4CCN(c5ncccc5C#N)CC4)cc3n2)cc1Cl [Example 283, 2-(4-(2-(5-chloro-2,4-dimethoxyphenyl)imidazo[1,2-a]pyridin-7-yl)-piperazin-1-yl)nicotinonitrile] | 0.0141 µM | 0.45 µM | 0.69 µM | 0.68 µM | 0.42 µM | 0.66 µM | – | – | – | – | –
COc1cc(OC)c(-c2cn3ccc(-c4ccc(C(=O)O)cc4)cc3n2)cc1Cl [Example 246, 4-(2-(5-chloro-2,4-dimethoxyphenyl)imidazo[1,2-a]pyridin-7-yl)benzoic acid] | 0.0143 µM | 10 µM | 10 µM | 10 µM | 10 µM | 10 µM | – | – | – | – | –
COc1cc(OC)c(-c2cn3ccc(N4CCN(c5ccccn5)CC4)cc3n2)cc1Cl [Example 276, 2-(5-chloro-2,4-dimethoxyphenyl)-7-(4-(pyridin-2-yl)piperazin-1-yl)-imidazo[1,2-a]pyridine] | 0.00774 µM | 1.1 µM | 0.69 µM | 1.2 µM | 0.71 µM | 1.2 µM | – | – | – | – | –
COc1cc(OCC2CC2)c(-c2cn3ccc(N4CCCC4)cc3n2)cc1Cl [Example 82, 2-(5-chloro-2-(cyclopropylmethoxy)-4-methoxyphenyl)-7-(pyrrolidin-1-yl)imidazo[1,2-a]pyridine] | 0.00538 µM | – | – | – | – | – | 3.8 µM | 2 µM | 4.7 µM | 3.2 µM | 3.5 µM
COc1cc(OC)c(-c2cn3ccc(N4CCN(C(=O)OC(C)(C)C)CC4)cc3n2)cc1Cl [Example 232, tert-butyl 4-[2-(5-chloro-2,4-dimethoxyphenyl)imidazo[1,2-a]pyridin-7-yl]piperazine-1-carboxylate] | 0.0291 µM | 1.5 µM | 1.1 µM | 0.73 µM | 1.7 µM | 1.5 µM | – | – | – | – | –
COc1cc(OC)c(-c2cn3ccc(N4CCCN(S(C)(=O)=O)CC4)cc3n2)cc1Cl [Example 201, 2-(5-chloro-2,4-dimethoxyphenyl)-7-[4-(methylsulfonyl)-1,4-diazepan-1-yl]imidazo[1,2-a]pyridine] | 0.0064 µM | – | – | – | – | – | 3.2 µM | 3 µM | 1.9 µM | 2.7 µM | 2.2 µM
COc1cc(OC)c(-c2cn3ccc(N4CCC(CNS(=O)(=O)C5CC5)CC4)cc3n2)cc1Cl [Example 149, N-((1-(2-(5-Chloro-2,4-dimethoxyphenyl)imidazo[1,2-a]pyridin-7-yl)piperidin-4-yl)methyl)cyclopropanesulfonamide] | 0.00672 µM | – | – | – | – | – | 4.8 µM | 1.9 µM | 2.4 µM | 2.3 µM | 2.5 µM
COc1cc(OC)c(-c2cn3ccc(N4CCCC4)nc3n2)cc1Br [Example 3, 2-(5-bromo-2,4-dimethoxyphenyl)-7-(pyrrolidin-1-yl)imidazo[1,2-a]pyrimidine] | 0.00858 µM | – | – | – | – | – | 6.8 µM | 7.4 µM | 7.1 µM | 8.1 µM | 11 µM
COc1cc(OC)c(-c2cn3cc(NCCN)c(N4CCN(S(=O)(=O)C5CC5)CC4)cc3n2)cc1Cl [Example 225, N^1-(2-(5-chloro-2,4-dimethoxyphenyl)-7-(4-(cyclopropylsulfonyl)-piperazin-1-yl)imidazo[1,2-a]pyridin-6-yl)ethane-1,2-diamine] | 0.0022 µM | 7.3 µM | 7.3 µM | 6.9 µM | 9.6 µM | 10 µM | – | – | – | – | –
COc1cc(OCCCN(C)C)c(-c2cn3ccc(N4CCC(NS(=O)(=O)C5CC5)CC4)cc3n2)cc1Cl [Example 163, N-(1-(2-(5-chloro-2-(3-(dimethylamino)propoxy)-4-methoxyphenyl)imidazo-[1,2-a]pyridin-7-yl)piperidin-4-yl)cyclopropanesulfonamide] | 0.0206 µM | – | – | – | – | – | 5.6 µM | 2.7 µM | 3.4 µM | 5.9 µM | 6.4 µM
COc1cc(OC)c(-c2cn3ccc(N4CCC(NS(=O)(=O)C(F)(F)F)CC4)cc3n2)cc1Cl [Example 176, N-{1-[2-(5-chloro-2,4-dimethoxyphenyl)imidazo[1,2-a]pyridin-7-yl]piperidin-4-yl}-1,1,1-trifluoromethanesulfonamide] | 0.0641 µM | – | – | – | – | – | 0.53 µM | 0.36 µM | 0.75 µM | 0.55 µM | 0.51 µM
COc1cc(OC)c(-c2cn3ccc(N4CCN(S(=O)(=O)C5CC5)C(COCCN(C)C)C4)cc3n2)cc1Cl (stereo not drawn) [Example 245, 2-((4-(2-(5-chloro-2,4-dimethoxyphenyl)imidazo[1,2-a]pyridin-7-yl)-1-(cyclopropylsulfonyl)piperazin-2-yl)methoxy)-N,N-dimethylethanamine] | 0.00863 µM | 5 µM | 5.4 µM | 5.1 µM | 9.4 µM | 5.5 µM | – | – | – | – | –
COc1cc(OC)c(-c2cn3cc(NCCN)c(N4CCOCC4)c(F)c3n2)cc1Cl [Example 208, N^1-(2-(5-chloro-2,4-dimethoxyphenyl)-8-fluoro-7-morpholinoimidazo-[1,2-a]pyridine-6-yl)ethane-1,2-diamine] | 0.0291 µM | – | – | – | – | – | 5.9 µM | 8.4 µM | 8.4 µM | 10 µM | 10 µM
